# Target: Tie-2 (Homo sapiens, UniProt Q02763)
# Test: Tie-2 tyrosine kinase activity: kinase-dependent ATP consumption (pEY substrate, luciferase/luciferin chemiluminescence) or 33P-ATP incorporation into substrate
# Type: biochemical
# Conditions: Tie-2 (human enzyme) inhibition, Table 2, class symbols A-D
# Procedure, shortened: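 Values are IC50 categories: A below 50 nM, B above 50 to 1000 nM, C above 1000 to below 10,000 nM, D 10,000 nM or more. They were measured by 33P-ATP phosphate transfer onto a generic substrate bound to the plate (scintillation), or by luminescent luciferase detection of ATP used with pEY.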
# Sequence of Tie-2 (Q02763 23-1124): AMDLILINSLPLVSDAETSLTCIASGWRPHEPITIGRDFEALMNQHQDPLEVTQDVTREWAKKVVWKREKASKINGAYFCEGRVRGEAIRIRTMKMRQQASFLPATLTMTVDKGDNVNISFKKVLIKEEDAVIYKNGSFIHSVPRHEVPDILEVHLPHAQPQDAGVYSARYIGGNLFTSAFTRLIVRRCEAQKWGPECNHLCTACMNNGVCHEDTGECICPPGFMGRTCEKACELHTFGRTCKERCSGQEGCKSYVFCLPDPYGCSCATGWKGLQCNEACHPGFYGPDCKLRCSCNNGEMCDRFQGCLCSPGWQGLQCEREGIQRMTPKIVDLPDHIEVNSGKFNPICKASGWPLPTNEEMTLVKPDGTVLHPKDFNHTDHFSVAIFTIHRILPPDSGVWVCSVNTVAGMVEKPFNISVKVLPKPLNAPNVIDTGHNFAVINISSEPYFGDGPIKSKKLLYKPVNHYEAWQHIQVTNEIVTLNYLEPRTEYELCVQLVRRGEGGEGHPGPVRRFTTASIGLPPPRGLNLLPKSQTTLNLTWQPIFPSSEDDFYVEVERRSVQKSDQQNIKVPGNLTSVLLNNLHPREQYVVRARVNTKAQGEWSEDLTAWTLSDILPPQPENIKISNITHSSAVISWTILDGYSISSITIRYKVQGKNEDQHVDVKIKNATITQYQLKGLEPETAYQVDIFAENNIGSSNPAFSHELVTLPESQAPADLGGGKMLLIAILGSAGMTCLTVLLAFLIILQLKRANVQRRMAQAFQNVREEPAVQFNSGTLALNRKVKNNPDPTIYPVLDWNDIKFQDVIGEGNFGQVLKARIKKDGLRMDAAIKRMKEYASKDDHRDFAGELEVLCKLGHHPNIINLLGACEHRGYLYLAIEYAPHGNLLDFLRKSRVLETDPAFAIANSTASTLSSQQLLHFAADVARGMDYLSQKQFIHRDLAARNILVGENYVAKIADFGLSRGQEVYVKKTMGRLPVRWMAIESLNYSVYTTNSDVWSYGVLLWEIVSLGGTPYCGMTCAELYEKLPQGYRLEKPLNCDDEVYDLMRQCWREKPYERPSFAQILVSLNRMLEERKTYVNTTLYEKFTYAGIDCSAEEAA
row,SMILES,IC50 [µM]
1,"COc1ccc(-c2nc(-c3ccncc3)nn2CCN(C(=O)Nc2ccc(C)cc2)C2CCCC2)cc1Cl [Entry 136, N-(2-{5-[3-chloro-4-(methyloxy)phenyl]-3-pyridin-4-yl-1H-1,2,4-triazol-1-yl}ethyl)-N-cyclopentyl-N′-(4-methylphenyl)urea]",≥ 10
2,"COc1ccc(-c2nc(-c3ccncc3)nn2CCN(C(=O)Nc2ccc(SC)cc2)C2CCCC2)cc1Cl [Entry 98, N-(2-{5-[3-chloro-4-(methyloxy)phenyl]-3-pyridin-4-yl-1H-1,2,4-triazol-1-yl}ethyl)-N-cyclopentyl-N′-[4-(methylthio)phenyl]urea]",≥ 10
3,"COc1ccc(-c2nc(-c3ccncc3)n(CCN(C(=O)Cc3cccc4ccccc34)C(C)C)n2)cc1Cl [Entry 35, N-(2-{3-[3-chloro-4-(methyloxy)phenyl]-5-pyridin-4-yl-1H-1,2,4-triazol-1-yl}ethyl)-N-(1-methylethyl)-2-naphthalen-1-ylacetamide]",≥ 10
4,"CCCCCCCNC(=O)N(CCn1nc(-c2ccncc2)nc1-c1ccc(OC)c(Cl)c1)C1CCCC1 [Entry 104, N-(2-{5-[3-chloro-4-(methyloxy)phenyl]-3-pyridin-4-yl-1H-1,2,4-triazol-1-yl}ethyl)-N-cyclopentyl-N′-heptylurea]",≥ 10
5,"COc1ccc(-c2nc(-c3ccncc3)nn2CCN(C(=O)c2ccnc3ccccc23)C2CCCC2)cc1Cl [Entry 28, N-(2-{5-[3-chloro-4-(methyloxy)phenyl]-3-pyridin-4-yl-1H-1,2,4-triazol-1-yl}ethyl)-N-cyclopentylquinoline-4-carboxamide]",≥ 10
6,"CCCCOc1ccc(NC(=O)N(CCn2nc(-c3ccncc3)nc2-c2ccc(OC)c(Cl)c2)C2CCCC2)cc1 [Entry 131, N′-[4-(butyloxy)phenyl]-N-(2-{5-[3-chloro-4-(methyloxy)phenyl]-3-pyridin-4-yl-1H-1,2,4-triazol-1-yl}ethyl)-N-cyclopentylurea]",≥ 10
7,"COc1ccc(-c2nc(-c3ccncc3)nn2CCN(C(=O)Nc2ccc(C)c(Cl)c2)C2CCCC2)cc1Cl [Entry 129, N-(2-{5-[3-chloro-4-(methyloxy)phenyl]-3-pyridin-4-yl-1H-1,2,4-triazol-1-yl}ethyl)-N′-(3-chloro-4-methylphenyl)-N-cyclopentylurea]",≥ 10
8,"COC(=O)CCn1nc(-c2ccc(OC)c(Cl)c2)nc1-c1ccncc1 [Entry 7, methyl 3-{3-[3-chloro-4-(methyloxy)phenyl]-5-pyridin-4-yl-1H-1,2,4-triazol-1-yl}propanoate]",≥ 10
9,"COc1ccc(-c2nc(-c3ccncc3)nn2CCN(C(=O)Nc2cc(OC)c(OC)c(OC)c2)C2CCCC2)cc1Cl [Entry 94, N-(2-{5-[3-chloro-4-(methyloxy)phenyl]-3-pyridin-4-yl-1H-1,2,4-triazol-1-yl}ethyl)-N-cyclopentyl-N′-[3,4,5-tris(methyloxy)phenyl]urea]",≥ 10
10,"CCOC(=O)Cn1nc(-c2ccncc2)nc1-c1ccc([N+](=O)[O-])cc1 [Entry 14, ethyl [5-(4-nitrophenyl)-3-pyridin-4-yl-1H-1,2,4-triazol-1-yl]acetate]",≥ 10
11,"COc1ccc(-c2nc(-c3ccncc3)nn2CCN(C(=O)Nc2cccc(SC)c2)C2CCCC2)cc1Cl [Entry 143, N-(2-{5-[3-chloro-4-(methyloxy)phenyl]-3-pyridin-4-yl-1H-1,2,4-triazol-1-yl}ethyl)-N-cyclopentyl-N′-[3-(methylthio)phenyl]urea]",≥ 10
12,"COc1ccc(-c2nc(-c3ccncc3)nn2CCN(C(=O)Nc2cc(C)cc(C)c2)C2CCCC2)cc1Cl [Entry 144, N-(2-{5-[3-chloro-4-(methyloxy)phenyl]-3-pyridin-4-yl-1H-1,2,4-triazol-1-yl}ethyl)-N-cyclopentyl-N′-(3,5-dimethylphenyl)urea]",≥ 10
13,"CCOc1ccc(NC(=O)N(CCn2nc(-c3ccncc3)nc2-c2ccc(OC)c(Cl)c2)C2CCCC2)cc1 [Entry 111, N-(2-{5-[3-chloro-4-(methyloxy)phenyl]-3-pyridin-4-yl-1H-1,2,4-triazol-1-yl}ethyl)-N-cyclopentyl-N′-[4-(ethyloxy)phenyl]urea]",1 to 10
14,"Cc1cccc(-c2nc(-c3ccncc3)n(CCN(C(=O)Cc3cccc4ccccc34)C3CCCC3)n2)c1 [Entry 73, N-cyclopentyl-N-{2-[3-(3-methylphenyl)-5-pyridin-4-yl-1H-1,2,4-triazol-1-yl]ethyl}-2-naphthalen-1-ylacetamide]",1 to 10
15,"CCCCCNC(=O)N(CCn1nc(-c2ccncc2)nc1-c1ccc(OC)c(Cl)c1)C1CCCC1 [Entry 103, N-(2-{5-[3-chloro-4-(methyloxy)phenyl]-3-pyridin-4-yl-1H-1,2,4-triazol-1-yl}ethyl)-N-cyclopentyl-N′-pentylurea]",≥ 10
16,"CCOC(=O)Cn1nc(-c2ccncc2)nc1-c1ccc(OC)c(Cl)c1 [Entry 2, ethyl {5-[3-chloro-4-(methyloxy)phenyl]-3-pyridin-4-yl-1H-1,2,4-triazol-1-yl}acetate]",≥ 10
17,"CCCNC(=O)N(CCn1nc(-c2ccncc2)nc1-c1ccc(OC)c(Cl)c1)C1CCCC1 [Entry 110, N-(2-{5-[3-chloro-4-(methyloxy)phenyl]-3-pyridin-4-yl-1H-1,2,4-triazol-1-yl}ethyl)-N-cyclopentyl-N′-propylurea]",≥ 10

# Other lines, results leading:
row,IC50 [µM],SMILES
1,1 to 10,"CCc1ccccc1NC(=O)N(CCn1nc(-c2ccncc2)nc1-c1ccc(OC)c(Cl)c1)C1CCCC1 [Entry 87, N-(2-{5-[3-chloro-4-(methyloxy)phenyl]-3-pyridin-4-yl-1H-1,2,4-triazol-1-yl}ethyl)-N-cyclopentyl-N′-(2-ethylphenyl)urea]"
2,1 to 10,"CCOc1ccccc1NC(=O)N(CCn1nc(-c2ccncc2)nc1-c1ccc(OC)c(Cl)c1)C1CCCC1 [Entry 121, N-(2-{5-[3-chloro-4-(methyloxy)phenyl]-3-pyridin-4-yl-1H-1,2,4-triazol-1-yl}ethyl)-N-cyclopentyl-N′-[2-(ethyloxy)phenyl]urea]"
3,1 to 10,"O=C(Cc1cccc2ccccc12)N(CCn1nc(-c2ccccc2Cl)nc1-c1ccncc1)C1CCCC1 [Entry 62, N-{2-[3-(2-chlorophenyl)-5-pyridin-4-yl-1H-1,2,4-triazol-1-yl]ethyl}-N-cyclopentyl-2-naphthalen-1-ylacetamide]"
4,0.05 to 1,"Cc1nc(-c2ccnc(NCc3ccccc3)n2)nn1CCN(C(=O)Cc1cccc2ccccc12)C1CCCC1 [Entry 184, N-cyclopentyl-N-[2-(5-methyl-3-{2-[(phenylmethyl)amino]pyrimidin-4-yl}-1H-1,2,4-triazol-1-yl)ethyl]-2-naphthalen-1-ylacetamide]"
5,1 to 10,"O=C(Cc1cccc2ccccc12)N(CCn1nc(-c2cccc(Cl)c2)nc1-c1ccncc1)C1CCCC1 [Entry 59, N-{2-[3-(3-chlorophenyl)-5-pyridin-4-yl-1H-1,2,4-triazol-1-yl]ethyl}-N-cyclopentyl-2-naphthalen-1-ylacetamide]"
6,1 to 10,"O=C(Cc1cccc2ccccc12)N(CCn1nc(-c2ccc(Cl)cc2Cl)nc1-c1ccncc1)C1CCCC1 [Entry 75, N-cyclopentyl-N-{2-[3-(2,4-dichlorophenyl)-5-pyridin-4-yl-1H-1,2,4-triazol-1-yl]ethyl}-2-naphthalen-1-ylacetamide]"
7,< 0.05,"Cc1cccc(-c2nc(-c3ccncc3)nn2CCN(C(=O)Cc2cccc3ccccc23)C2CCCC2)c1 [Entry 72, N-cyclopentyl-N-{2-[5-(3-methylphenyl)-3-pyridin-4-yl-1H-1,2,4-triazol-1-yl]ethyl}-2-naphthalen-1-ylacetamide]"
8,< 0.05,"COCCNc1cc(-c2nc(C)n(CCN(C(=O)Cc3cccc4ccccc34)C3CCCC3)n2)ccn1 [Entry 175, N-cyclopentyl-N-{2-[5-methyl-3-(2-{[2-(methyloxy)ethyl]amino}pyridin-4-yl)-1H-1,2,4-triazol-1-yl]ethyl}-2-naphthalen-1-ylacetamide]"
9,1 to 10,"COc1ccc(-c2nc(-c3ccncc3)nn2CCN(C(=O)Nc2ccccc2C)C2CCCC2)cc1Cl [Entry 86, N-(2-{5-[3-chloro-4-(methyloxy)phenyl]-3-pyridin-4-yl-1H-1,2,4-triazol-1-yl}ethyl)-N-cyclopentyl-N′-(2-methylphenyl)urea]"
10,< 0.05,"O=C(Cc1cccc2ccccc12)N(CCn1nc(-c2ccc(Br)cc2)nc1-c1ccncc1)C1CCCC1 [Entry 68, N-{2-[3-(4-bromophenyl)-5-pyridin-4-yl-1H-1,2,4-triazol-1-yl]ethyl}-N-cyclopentyl-2-naphthalen-1-ylacetamide]"
11,0.05 to 1,"COc1ccc(-c2nc(-c3ccncc3)nn2CCN(C(=O)Nc2cccc(Cl)c2C)C2CCCC2)cc1Cl [Entry 152, N-(2-{5-[3-chloro-4-(methyloxy)phenyl]-3-pyridin-4-yl-1H-1,2,4-triazol-1-yl}ethyl)-N′-(3-chloro-2-methylphenyl)-N-cyclopentylurea]"
12,< 0.05,"O=C(Cc1cccc2ccccc12)N(CCn1nc(-c2ccncc2)nc1-c1ccc(Br)cc1)C1CCCC1 [Entry 67, N-{2-[5-(4-bromophenyl)-3-pyridin-4-yl-1H-1,2,4-triazol-1-yl]ethyl}-N-cyclopentyl-2-naphthalen-1-ylacetamide]"
13,1 to 10,"COc1ccc(-c2nc(-c3ccncc3)nn2CCN(C(=O)Nc2cc(Cl)ccc2C)C2CCCC2)cc1Cl [Entry 149, N-(2-{5-[3-chloro-4-(methyloxy)phenyl]-3-pyridin-4-yl-1H-1,2,4-triazol-1-yl}ethyl)-N′-(5-chloro-2-methylphenyl)-N-cyclopentylurea]"
14,0.05 to 1,"O=C(Cc1cccc2ccccc12)N(CCn1nc(-c2ccc(O)c(Cl)c2)nc1-c1ccncc1)C1CCCC1 [Entry 11, N-{2-[3-(3-chloro-4-hydroxyphenyl)-5-pyridin-4-yl-1H-1,2,4-triazol-1-yl]ethyl}-N-cyclopentyl-2-naphthalen-1-ylacetamide]"
15,0.05 to 1,"COc1ccc(-c2nc(-c3ccncc3)n(CCN(C(=O)Cc3cccc4ccccc34)C3CC3)n2)cc1Cl [Entry 38, N-(2-{3-[3-chloro-4-(methyloxy)phenyl]-5-pyridin-4-yl-1H-1,2,4-triazol-1-yl}ethyl)-N-cyclopropyl-2-naphthalen-1-ylacetamide]"

# — patent publication US8178570B2, “Tie-2 modulators and methods of use” (Exelixis, Inc., priority 2003, dated 2012)
